These results are taken from patent US10011571B2, “Preparation method for aromatic heterocyclic compound used as selective JAK3 and/or JAK1 kinase inhibitor and application of aromatic heterocyclic compound” (SHENZHEN CHIPSCREEN BIOSCIENCES, LTD., priority 2014, dated 2018).

SMILES strings stand for the structures.

Test [1] concerns the target JAK1 (Homo sapiens (Human), UniProt P23458). The experiment in a line: Z'-LYTE enzymatic activity detection, JAK1. The following applies: test compound 300 nM; for inhibition at 0.3 µM: read-out: JAK1 % inhibitory rate @300 nM. It is filed as biochemical. A digest of the protocol:
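GST-tagged human recombinant kinases with Z′-LYTE peptides (Tyr6 for JAK1, Tyr4 for JAK2 and JAK3), ATP from kit, reacted 1 h at room temperature; development 1 h, ratio 445/520 nm at 400 nm excitation gives phosphorylation. Inhibition vs solvent control at 30 nM (JAK2, JAK3) or 300 nM (JAK1); tofacitinib as positive control.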

The test system of test [2] is HeLa cells. As to the kind of experiment: Cell growth activity assay (MTS), HeLa cell model. It is filed as cell-based, human. Set-up: activity: dose or concentration left out as unconfirmed. Particulars: Homo sapiens, HeLa, 72 h; for activity: read-out: HeLa % growth rate. The essentials: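 HeLa human cervical cancer cells were plated at about 5000 cells/well in a 96-well plate. After 24 h, test compounds were added in concentration gradients (highest final concentration 40 μM), alongside a DMSO solvent control and a negative control. After another 72 h, the medium was replaced with 100 μL fresh medium plus 20 μL MTS/PMS (20:1). Plates were incubated 2 h at 37° C. and absorbance was read at 490 nm to give growth inhibition and GI50.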

In general, GI50 refers to the concentration giving 50% growth inhibition.

Chain of JAK1 (P23458 whole entry): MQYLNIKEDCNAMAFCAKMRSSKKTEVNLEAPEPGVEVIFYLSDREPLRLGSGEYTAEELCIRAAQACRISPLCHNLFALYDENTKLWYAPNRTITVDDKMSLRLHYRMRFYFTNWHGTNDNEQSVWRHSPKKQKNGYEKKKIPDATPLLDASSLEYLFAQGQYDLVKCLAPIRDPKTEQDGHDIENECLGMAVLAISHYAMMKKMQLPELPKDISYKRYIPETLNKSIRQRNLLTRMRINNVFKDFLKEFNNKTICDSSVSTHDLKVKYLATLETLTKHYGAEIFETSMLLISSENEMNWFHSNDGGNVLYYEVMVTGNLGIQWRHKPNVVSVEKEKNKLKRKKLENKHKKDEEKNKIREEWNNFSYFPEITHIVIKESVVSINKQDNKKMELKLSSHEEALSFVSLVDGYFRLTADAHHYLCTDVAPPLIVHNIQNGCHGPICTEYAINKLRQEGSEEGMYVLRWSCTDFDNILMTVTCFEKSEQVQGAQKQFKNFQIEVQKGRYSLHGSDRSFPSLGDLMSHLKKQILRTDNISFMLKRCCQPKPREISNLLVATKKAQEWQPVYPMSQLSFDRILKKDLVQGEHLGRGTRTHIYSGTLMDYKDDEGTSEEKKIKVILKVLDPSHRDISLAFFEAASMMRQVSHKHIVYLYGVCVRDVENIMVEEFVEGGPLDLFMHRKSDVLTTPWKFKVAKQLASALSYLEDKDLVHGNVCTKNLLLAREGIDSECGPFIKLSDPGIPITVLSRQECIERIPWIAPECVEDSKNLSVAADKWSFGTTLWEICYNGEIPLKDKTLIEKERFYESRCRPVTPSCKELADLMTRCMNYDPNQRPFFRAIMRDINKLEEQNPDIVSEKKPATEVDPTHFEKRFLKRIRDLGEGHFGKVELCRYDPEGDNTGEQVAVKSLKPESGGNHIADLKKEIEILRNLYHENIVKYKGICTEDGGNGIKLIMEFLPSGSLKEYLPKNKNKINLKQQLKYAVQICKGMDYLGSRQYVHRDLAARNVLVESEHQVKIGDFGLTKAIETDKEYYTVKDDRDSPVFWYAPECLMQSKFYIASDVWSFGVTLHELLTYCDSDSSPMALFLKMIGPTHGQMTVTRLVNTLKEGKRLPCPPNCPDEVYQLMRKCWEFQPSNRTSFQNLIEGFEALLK

Take `C=CC(=O)N(C)c1cc(Nc2ncc(Cl)c(NCCCNC(=O)c3ccc(C#N)cc3)n2)ccc1F` [Example 7, N-(3-(5-chloro-2-(4-fluoro-3-(N-methylacrylamido)phenylamino)pyrimidinyl-4-amino)propyl)-4-cyano-benzamide]: in test [1], the “JAK1 RV (ratio between the inhibitory rate of the test compound and that of Xeljanz)” value is listed as 0.58; the inhibition at 0.3 µM amounted to 56%. Also, in test [2], the GI50 is > 40 µM and the activity stood at 98%.
For `C=CC(=O)N(C)c1cc(Nc2ncc(Cl)c(NCCCNC(=O)c3ccc(C(F)(F)F)cc3)n2)ccc1F` [Example 22, N-(3-(5-chloro-2-(4-fluoro-3-(N-methylacrylamido)phenylamino)pyrimidinyl-4-amino)propyl)-4-trifluoromethylbenzamide], in test [1], the “JAK1 RV (ratio between the inhibitory rate of the test compound and that of Xeljanz)” value was 0.33; the inhibition at 0.3 µM was determined as 18%. Moreover, in test [2], the GI50 is > 40 µM and the activity stood at 78%.
Consider `C=CC(=O)N(C)c1cc(Nc2ncc(Cl)c(NCCCNC(=O)c3ccc(F)cc3)n2)ccc1F` [Example 23, N-(3-(5-chloro-2-(4-fluoro-3-(N-methylacrylamido)phenylamino)pyrimidinyl-4-amino)propyl)-4-fluorobenzamide], for which, in test [1], the “JAK1 RV (ratio between the inhibitory rate of the test compound and that of Xeljanz)” value came out at 0.35; the inhibition at 0.3 µM was determined as 19%. In test [2], the activity turned out to be 96%.
